Where only a bound is given, the exact number is not on record here.

Chain of PD-1/PD-L1 (Q9NZQ7 19-238): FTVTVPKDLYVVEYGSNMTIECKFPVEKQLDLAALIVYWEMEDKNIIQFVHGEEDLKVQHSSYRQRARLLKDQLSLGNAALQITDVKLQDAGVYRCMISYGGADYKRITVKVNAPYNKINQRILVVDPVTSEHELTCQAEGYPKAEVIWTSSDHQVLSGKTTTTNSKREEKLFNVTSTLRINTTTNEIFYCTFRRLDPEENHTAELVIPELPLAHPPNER

This assay addresses PD-1/PD-L1 (Homo sapiens (Human), UniProt Q9NZQ7). Description: PD-1/PD-L1 Homogeneous Time-Resolved Fluorescence (HTRF) Binding Assay. The settings on record: recombinant human PD-1 (3 nM) and PD-L1 (10 nM), 25° C., PBS pH 7.4. The method in brief:
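Fc-tagged human PD-1 (25-167, 3 nM) and His-tagged PD-L1 (19-238, 10 nM) preincubated with inhibitor 40 min in PBS pH 7.4, 0.05% Tween-20, 0.1% BSA, 1% DMSO, 25 °C. Binding detected by HTRF (Eu anti-IgG/APC anti-His, 665/620 nm) after 60 min; IC50 from percent control activity.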
(TR-FRET usually uses a lanthanide donor and a delayed reading to cut background.)
`Cc1c(-c2nc3cc(CN4CC[C@@H](C(=O)O)C4)cc(C#N)c3o2)cccc1-c1cccc(Nc2nccc3cc(CN4CC[C@H](O)C4)cnc23)c1Cl` [Example 30, (R)-1-((2-(2′-chloro-3′-(3-(((S)-3-hydroxypyrrolidin-1-yl)methyl)-1,7-naphthyridin-8-ylamino)-2-methylbiphenyl-3-yl)-7-cyanobenzo[d]oxazol-5-yl)methyl)pyrrolidine-3-carboxylic acid]: the IC50 (as a rule, the point on the concentration scale where inhibition reaches its midpoint) is no more than 10 nM.

On to `Cc1c(Nc2nccc3cc(CN4CC[C@H](O)C4)cnc23)cccc1-c1cccc(-c2nc3cc(CN4CC[C@@H](C(=O)O)C4)cc(C#N)c3o2)c1C` [Example 26, (R)-1-((7-cyano-2-(3′-(3-(((S)-3-hydroxypyrrolidin-1-yl)methyl)-1,7-naphthyridin-8-ylamino)-2,2′-dimethylbiphenyl-3-yl)benzo[d]oxazol-5-yl)methyl)pyrrolidine-3-carboxylic acid], for which the IC50 was no more than 10 nM.

In the case of `Cc1c(-c2nc3cc(CN4CC[C@@H](O)C4)cc(C#N)c3o2)cccc1-c1cccc(NC(=O)c2nc3c(n2C)CCN(C2CC(C)(C(=O)O)C2)C3)c1Cl` (stereo partly drawn) [Example 263, (R)-3-(2-(2-chloro-3′-(7-cyano-5-((3-hydroxypyrrolidin-1-yl)-methyl)benzo[d]oxazol-2-yl)-2′-methylbiphenyl-3-ylcarbamoyl)-1-methyl-6,7-dihydro-1H-imidazo[4,5-c]pyridin-5(4H)-yl)-1-methylcyclobutanecarboxylic acid], the half-maximal inhibitory concentration (IC50) was no more than 10 nM.

Take `Cc1c(NC(=O)c2nc3c(n2C)CCN(C)C3)cccc1-c1cccc(-c2nc3cc(CN4CCC(C(=O)O)CC4)cc(C#N)c3o2)c1C` [Example 259, 1-((7-cyano-2-(3′-(1,5-dimethyl-4,5,6,7-tetrahydro-1H-imidazo[4,5-c]pyridine-2-carboxamido)-2,2′-dimethylbiphenyl-3-yl)benzo[d]oxazol-5-yl)methyl)piperidine-4-carboxylic acid]: the half-maximal inhibitory concentration (IC50) was no more than 10 nM.

With `CC(=O)NCCNCc1cc(C#N)c2oc(-c3cccc(-c4cccc(-c5nc6c(s5)CN(C(C)C)CC6)c4C)c3C)nc2c1` [Example 118, N-(2-(((7-cyano-2-(3′-(5-isopropyl-4,5,6,7-tetrahydrothiazolo[5,4-c]pyridin-2-yl)-2,2′-dimethyl-[1,1′-biphenyl]-3-yl)benzo[d]oxazol-5-yl)methyl)amino)ethyl)acetamide], the half-maximal inhibitory concentration (IC50) was no more than 10 nM.

For `Cc1c(-c2nc3cc(CN4CC[C@@H](C(=O)O)C4)cc(C#N)c3o2)cccc1-c1cccc(NC(=O)c2nc3c(n2C)CC(C)NC3)c1Cl` (stereo partly drawn) [Example 159, (3R)-1-((2-(2′-chloro-3′-(1,6-dimethyl-4,5,6,7-tetrahydro-1H-imidazo[4,5-c]pyridine-2-carboxamido)-2-methylbiphenyl-3-yl)-7-cyanobenzo[d]oxazol-5-yl)methyl)pyrrolidine-3-carboxylic acid], the half-inhibitory concentration (IC50) was no more than 10 nM.

Take `Cc1c(Nc2nccc3cc(CN(C)CCO)cnc23)cccc1-c1cccc(-c2nc3cc(CN4CC[C@@](C)(C(=O)O)C4)cc(C#N)c3o2)c1C` [Example 190, (R)-1-((7-cyano-2-(3′-(3-(((2-hydroxyethyl)(methyl)amino)methyl)-1,7-naphthyridin-8-ylamino)-2,2′-dimethylbiphenyl-3-yl)benzo[d]oxazol-5-yl)methyl)-3-methylpyrrolidine-3-carboxylic acid]: the 50% inhibitory concentration (IC50) is no more than 10 nM.

For the compound `Cc1c(Nc2nccc3cc(CN4CC[C@@H](O)C4)cnc23)cccc1-c1cccc(-c2nc3cc(CNCCC(=O)O)cc(C#N)c3o2)c1C` [Example 101, (R)-3-((7-cyano-2-(3′-(3-((3-hydroxypyrrolidin-1-yl)methyl)-1,7-naphthyridin-8-ylamino)-2,2′-dimethylbiphenyl-3-yl)benzo[d]oxazol-5-yl)methylamino)propanoic acid], the IC50 is no more than 10 nM.

On to `Cc1c(-c2nc3cc(CN4CC[C@@H](C(=O)O)C4)cc(Cl)c3o2)cccc1-c1cccc(-c2nc3c(s2)CN(C)CC3)c1C` [Example 71, (R)-1-((7-chloro-2-(2,2′-dimethyl-3′-(5-methyl-4,5,6,7-tetrahydrothiazolo[5,4-c]pyridin-2-yl)-[1,1′-biphenyl]-3-yl)benzo[d]oxazol-5-yl)methyl)pyrrolidine-3-carboxylic acid], for which the IC50 was no more than 10 nM.

As for `Cc1c(NC(=O)c2nc3c(n2C)CCN(C[C@H](C)O)C3)cccc1-c1cccc(-c2nc3cc(CN4CC[C@H](C(=O)O)C4)cc(C#N)c3o2)c1C` [Example 41, (S)-1-((7-cyano-2-(3′-(5-((S)-2-hydroxypropyl)-1-methyl-4,5,6,7-tetrahydro-1H-imidazo[4,5-c]pyridine-2-carboxamido)-2,2′-dimethylbiphenyl-3-yl)benzo[d]oxazol-5-yl)methyl)pyrrolidine-3-carboxylic acid], the IC50 was no more than 10 nM.

As to `Cc1c(-c2nc3cc(CN4CC[C@@](C)(C(=O)O)C4)cc(C#N)c3o2)cccc1-c1cccc(NC(=O)c2nc3c(n2C)CC(C)NC3)c1Cl` (stereo partly drawn) [Example 163, (3R)-1-((2-(2′-chloro-3′-(1,6-dimethyl-4,5,6,7-tetrahydro-1H-imidazo[4,5-c]pyridine-2-carboxamido)-2-methylbiphenyl-3-yl)-7-cyanobenzo[d]oxazol-5-yl)methyl)-3-methylpyrrolidine-3-carboxylic acid], the IC50 was no more than 10 nM.

For `Cc1c(Nc2nccc3cc(CN4CC[C@@H](O)C4)cnc23)cccc1-c1cccc(-c2nc3cc(CN4CC5CC4CC5C(=O)O)cc(C#N)c3o2)c1C` (stereo partly drawn) [Example 176, 2-((7-cyano-2-(3′-(3-(((R)-3-hydroxypyrrolidin-1-yl)methyl)-1,7-naphthyridin-8-ylamino)-2,2′-dimethylbiphenyl-3-yl)benzo[d]oxazol-5-yl)methyl)-2-aza bicyclo[2.2.1]heptane-5-carboxylic acid], the IC50 is no more than 10 nM.

As for `Cc1c(Nc2nccc3cc(CN[C@@H](C)CO)cnc23)cccc1-c1cccc(-c2nc3cc(CN4CC[C@@](C)(C(=O)O)C4)cc(C#N)c3o2)c1C` [Example 195, (R)-1-((7-cyano-2-(3′-(3-(((S)-1-hydroxypropan-2-ylamino)methyl)-1,7-naphthyridin-8-ylamino)-2,2′-dimethylbiphenyl-3-yl)benzo[d]oxazol-5-yl)methyl)-3-methylpyrrolidine-3-carboxylic acid], the half-maximal inhibitory concentration (IC50) was no more than 10 nM.

In the case of `Cc1c(-c2nc3cc(CN4CC[C@@H](C(=O)O)C4)cc(C#N)c3o2)cccc1-c1cccc(-c2nc3c(s2)CN(C(=O)CN2CCC2)C3)c1C` [Example 113, (R)-1-((2-(3′-(5-(2-(azetidin-1-yl)acetyl)-5,6-dihydro-4H-pyrrolo[3,4-d]thiazol-2-yl)-2,2′-dimethylbiphenyl-3-yl)-7-cyanobenzo[d]oxazol-5-yl)methyl)pyrrolidine-3-carboxylic acid], the IC50 is no more than 10 nM.

Consider `Cc1c(-c2nc3cc(CN[C@H]4CC[C@H](C(=O)O)CC4)cc(C#N)c3o2)cccc1-c1cccc(NC(=O)c2nc3c(n2C)CCN(C)C3)c1Cl` [Example 91, (1R,4R)-4-((2-(2′-chloro-3′-(1,5-dimethyl-4,5,6,7-tetrahydro-1H-imidazo[4,5-c]pyridine-2-carboxamido)-2-methylbiphenyl-3-yl)-7-cyanobenzo[d]oxazol-5-yl)methylamino)cyclohexanecarboxylic acid], for which the IC50 is no more than 10 nM.

Turning to `Cc1c(Nc2nccc3cc(CNC[C@H](C)O)cnc23)cccc1-c1cccc(-c2nc3cc(CN4CCC(C(=O)O)CC4)cc(C#N)c3o2)c1C` [Example 204, (S)-1-((7-cyano-2-(3′-(3-((2-hydroxypropylamino)methyl)-1,7-naphthyridin-8-ylamino)-2,2′-dimethylbiphenyl-3-yl)benzo[d]oxazol-5-yl)methyl)piperidine-4-carboxylic acid], the IC50 was no more than 10 nM.

For the compound `Cc1c(Nc2nccc3cc(CNC[C@H](C)O)cnc23)cccc1-c1cccc(-c2nc3cc(CN4CC[C@@H](C(=O)O)C4)cc(C#N)c3o2)c1C` [Example 146, (R)-1-((7-cyano-2-(3′-((3-((((S)-2-hydroxypropyl)amino)methyl)-1,7-naphthyridin-8-yl)amino)-2,2′-dimethyl-[1,1′-biphenyl]-3-yl)benzo[d]oxazol-5-yl)methyl)pyrrolidine-3-carboxylic acid], the IC50 was no more than 10 nM.

In the case of `Cc1c(Nc2nccc3cc(CN4CCCC4)cnc23)cccc1-c1cccc(-c2nc3cc(CN4CC[C@@](C)(C(=O)O)C4)cc(C#N)c3o2)c1C` [Example 193, (R)-1-((7-cyano-2-(2,2′-dimethyl-3′-(3-(pyrrolidin-1-ylmethyl)-1,7-naphthyridin-8-ylamino)biphenyl-3-yl)benzo[d]oxazol-5-yl)methyl)-3-methylpyrrolidine-3-carboxylic acid], the half-inhibitory concentration (IC50) was no more than 10 nM.

In the case of `Cc1c(Nc2ncnc3cc(CN4CCCC4)cnc23)cccc1-c1cccc(-c2nc3cc(CN4CC[C@@H](C(=O)O)C4)cc(C#N)c3o2)c1C` [Example 209, (R)-1-((7-cyano-2-(2,2′-dimethyl-3′-(7-(pyrrolidin-1-ylmethyl)pyrido[3,2-d]pyrimidin-4-ylamino)biphenyl-3-yl)benzo[d]oxazol-5-yl)methyl)pyrrolidine-3-carboxylic acid], the 50% inhibitory concentration (IC50) was no more than 10 nM.

Turning to `Cc1c(Nc2nccc3cc(CN4CC[C@@H](O)C4)cnc23)cccc1-c1cccc(-c2nc3cc(CN[C@H]4CC[C@H](C(=O)O)C4)cc(C#N)c3o2)c1C` [Example 182, (1S,3S)-3-((7-cyano-2-(3′-(3-(((R)-3-hydroxypyrrolidin-1-yl)methyl)-1,7-naphthyridin-8-ylamino)-2,2′-dimethylbiphenyl-3-yl)benzo [d]oxazol-5-yl)methylamino)cyclopentane carboxylic acid], the IC50 is no more than 10 nM.

Regarding `Cc1c(-c2nc3cc(CN4CC[C@H](C(=O)O)C4)cc(Cl)c3o2)cccc1-c1cccc(Nc2nccc3cc(CN4CC[C@@H](O)C4)cnc23)c1Cl` [Example 81, (S)-1-((7-chloro-2-(2′-chloro-3′-(3-(((R)-3-hydroxypyrrolidin-1-yl)methyl)-1,7-naphthyridin-8-ylamino)-2-methylbiphenyl-3-yl)benzo[d]oxazol-5-yl)methyl)pyrrolidine-3-carboxylic acid], the IC50 is no more than 10 nM.
